Publication PMC7127491 (Bioorganic & Medicinal Chemistry, 2008)
“Also recorded” adds a separate entry of the source.

Legend:
Type in all cases: cell-based
HIV-1 = assay: Anti-HIV-1 activity, virus-induced cytopathicity in CEM cells
HIV-2 = assay: Anti-HIV-2 activity, virus-induced cytopathicity in CEM cells
[1] = tested on: normal diploid human fibroblasts (WI 38); assay: Antiproliferation MTT assay
influenza A (H3N2) = assay: microbe, parasite or virus in culture; conditions: H3N2, MDCK, read-out: EC50 against influenza A (H3N2)
[2] = tested on: all evaluated tumour cell lines (L1210, Molt4/C8, CEM, HeLa, MCF-7, MiaPaCa-2, SW 620, Hep G2); assay: Cytostatic activity over the whole panel of evaluated cell lines; conditions: read-out: IC50 range on all the evaluated tumour cell lines

SMILES	inhibitory activity against HIV-1, in words (HIV-1)	inhibitory activity against HIV-2, in words (HIV-2)	cytotoxicity to human normal fibroblasts (WI 38), in words [1]	EC50 (influenza A (H3N2))	IC50 [2]
O=C1c2ccccc2C(=O)N1C/C=C\Cn1cc(C#Cc2ccc(Br)cc2)c(=O)[nH]c1=O [Compound 4, (Z)-1-[4′-(N-Phthalimido)-2′-butenyl]-5-(p-bromophenylethynyl)uracil]	marginal inhibitory activity; also recorded: slight activity	marginal inhibitory activity			
CCCCCc1ccc(C#Cc2cn(C/C=C\CN3C(=O)c4ccccc4C3=O)c(=O)[nH]c2=O)cc1 [Compound 7, (Z)-1-[4′-(N-Phthalimido)-2′-butenyl]-5-(p-pentylphenylethynyl)uracil]			no cytotoxicity		
CCCCCCCCC#Cc1cn(C/C=C\CN2C(=O)c3ccccc3C2=O)c(=O)[nH]c1=O [Compound 2, (Z)-1-[4′-(N-Phthalimido)-2′-butenyl]-5-decynyluracil]				2.5 to 4 µM	
O=C1c2ccccc2C(=O)N1C/C=C\Cn1cc(C#CCCc2ccccc2)c(=O)[nH]c1=O [Compound 3, (Z)-1-[4′-(N-Phthalimido)-2′-butenyl]-5-(4″-phenylbutynyl)uracil]	marginal inhibitory activity; also recorded: slight activity	marginal inhibitory activity			
CCCCCc1ccc(C#Cc2cn(C/C=C/CN3C(=O)c4ccccc4C3=O)c(=O)[nH]c2=O)cc1 [Compound 14, (E)-1-[4′-(N-Phthalimido)-2′-butenyl]-5-(p-pentylphenylethynyl)uracil]	marginal inhibitory activity; also recorded: moderate activity	marginal inhibitory activity; also recorded: moderate activity	cytotoxic		4.3 to 39 µM
